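Cultured in 96-well plates, cells were exposed to test compound for 48 hours across five concentrations. Definition used: TGI = concentration required for complete inhibition of growth.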
How the values were obtained:
Assay in all cases: NCI anticancer screen, dose series, 48 h
EKVX NSCLC = tested on: EKVX NSCLC
K-562 leukemia = tested on: K-562 leukemia
UACC-257 melanoma = tested on: UACC-257 melanoma
HCT-15 colon = tested on: HCT-15 colon
NCI-H23 lung = tested on: NCI-H23 lung
LOX IMVI melanoma = tested on: LOX IMVI melanoma
T-47D breast = tested on: T-47D breast
SNB-19 CNS = tested on: SNB-19 CNS
SF-539 CNS = tested on: SF-539 CNS
CCRF-CEM leukemia = tested on: CCRF-CEM leukemia
BT-549 breast = tested on: BT-549 breast
PC-3 prostate = tested on: PC-3 prostate
RPMI-8226 leukemia = tested on: RPMI-8226 leukemia
HL-60(TB) leukemia = tested on: HL-60(TB) leukemia
HOP-62 NSCLC = tested on: HOP-62 NSCLC
M14 melanoma = tested on: M14 melanoma
NCI-H460 lung = tested on: NCI-H460 lung
MDA-MB-435 = tested on: MDA-MB-435
COLO 205 colon = tested on: COLO 205 colon
SF-295 CNS = tested on: SF-295 CNS
SW-620 colon = tested on: SW-620 colon
NCI/ADR-RES ovarian = tested on: NCI/ADR-RES ovarian
MDA-MB-231 breast = tested on: MDA-MB-231 breast
UACC-62 melanoma = tested on: UACC-62 melanoma
SK-MEL-28 melanoma = tested on: SK-MEL-28 melanoma
TK-10 renal = tested on: TK-10 renal
SK-OV-3 ovarian = tested on: SK-OV-3 ovarian
IGROV1 ovarian = tested on: IGROV1 ovarian
SNB-75 CNS = tested on: SNB-75 CNS
HOP-92 NSCLC = tested on: HOP-92 NSCLC
SK-MEL-5 melanoma = tested on: SK-MEL-5 melanoma
MOLT-4 leukemia = tested on: MOLT-4 leukemia
HCT-116 colon = tested on: HCT-116 colon
NCI-H226 lung = tested on: NCI-H226 lung
786-0 renal = tested on: 786-0 renal
HS 578T breast = tested on: HS 578T breast
OVCAR-3 ovarian = tested on: OVCAR-3 ovarian
NCI-H522 lung = tested on: NCI-H522 lung
OVCAR-8 ovarian = tested on: OVCAR-8 ovarian
SF-268 CNS = tested on: SF-268 CNS
MALME-3M melanoma = tested on: MALME-3M melanoma
SN12C renal = tested on: SN12C renal
U251 CNS = tested on: U251 CNS
SR leukemia = tested on: SR leukemia
MCF7 breast = tested on: MCF7 breast
OVCAR-4 ovarian = tested on: OVCAR-4 ovarian
ACHN renal = tested on: ACHN renal
OVCAR-5 ovarian = tested on: OVCAR-5 ovarian
UO-31 renal = tested on: UO-31 renal
HT29 colon = tested on: HT29 colon
HCC-2998 colon = tested on: HCC-2998 colon
A549 NSCLC = tested on: A549 NSCLC
CAKI-1 renal = tested on: CAKI-1 renal
DU-145 prostate = tested on: DU-145 prostate
MDA-N = tested on: MDA-N
A498 renal = tested on: A498 renal
RXF 393 renal = tested on: RXF 393 renal
SK-MEL-2 melanoma = tested on: SK-MEL-2 melanoma
KM12 colon = tested on: KM12 colon

## C=CCN(CCNS(=O)(=O)c1ccc(C)cc1)S(=O)(=O)c1ccc(C)cc1
EKVX NSCLC
  TGI: 96.9 µM
K-562 leukemia
  TGI: > 100 µM
UACC-257 melanoma
  TGI: > 100 µM
HCT-15 colon
  TGI: > 100 µM
NCI-H23 lung
  TGI: > 95.5 µM
LOX IMVI melanoma
  TGI: > 100 µM
T-47D breast
  TGI: > 100 µM
SNB-19 CNS
  TGI: > 100 µM
SF-539 CNS
  TGI: > 100 µM
CCRF-CEM leukemia
  TGI: > 100 µM
BT-549 breast
  TGI: 61 µM
PC-3 prostate
  TGI: > 100 µM
RPMI-8226 leukemia
  TGI: 73.5 µM
HL-60(TB) leukemia
  TGI: 47.6 µM
HOP-62 NSCLC
  TGI: > 100 µM
M14 melanoma
  TGI: > 100 µM
NCI-H460 lung
  TGI: > 71.7 µM
MDA-MB-435
  TGI: > 100 µM
COLO 205 colon
  TGI: > 60.5 µM
SF-295 CNS
  TGI: > 100 µM
SW-620 colon
  TGI: > 100 µM
NCI/ADR-RES ovarian
  TGI: > 100 µM
MDA-MB-231 breast
  TGI: > 100 µM
UACC-62 melanoma
  TGI: > 100 µM
SK-MEL-28 melanoma
  TGI: > 100 µM
TK-10 renal
  TGI: > 100 µM
SK-OV-3 ovarian
  TGI: > 100 µM
IGROV1 ovarian
  TGI: > 100 µM
SNB-75 CNS
  TGI: > 100 µM
HOP-92 NSCLC
  TGI: > 100 µM
SK-MEL-5 melanoma
  TGI: 12.1 µM
MOLT-4 leukemia
  TGI: > 84.5 µM
HCT-116 colon
  TGI: > 100 µM
NCI-H226 lung
  TGI: > 100 µM
786-0 renal
  TGI: > 100 µM
HS 578T breast
  TGI: > 100 µM
OVCAR-3 ovarian
  TGI: > 100 µM
NCI-H522 lung
  TGI: > 100 µM
OVCAR-8 ovarian
  TGI: > 100 µM
SF-268 CNS
  TGI: > 100 µM
MALME-3M melanoma
  TGI: > 100 µM
SN12C renal
  TGI: > 100 µM
U251 CNS
  TGI: > 100 µM
SR leukemia
  TGI: > 100 µM
MCF7 breast
  TGI: > 84.2 µM
OVCAR-4 ovarian
  TGI: > 100 µM
ACHN renal
  TGI: > 100 µM
OVCAR-5 ovarian
  TGI: > 100 µM
UO-31 renal
  TGI: > 100 µM
HT29 colon
  TGI: > 100 µM
HCC-2998 colon
  TGI: > 100 µM
A549 NSCLC
  TGI: > 100 µM
CAKI-1 renal
  TGI: > 100 µM
DU-145 prostate
  TGI: > 100 µM
MDA-N
  TGI: > 100 µM
A498 renal
  TGI: 26.8 µM
RXF 393 renal
  TGI: > 100 µM
SK-MEL-2 melanoma
  TGI: 94.3 µM
KM12 colon
  TGI: > 100 µM

## CN(C)c1ccc(/C=C(\NC(=O)c2ccccc2)C2=NC(CCC(=O)O)C(=O)O2)cc1 (stereo unspecified)
EKVX NSCLC
  TGI: > 50 µM
K-562 leukemia
  TGI: > 50 µM
UACC-257 melanoma
  TGI: > 50 µM
HCT-15 colon
  TGI: > 50 µM
NCI-H23 lung
  TGI: > 50 µM
LOX IMVI melanoma
  TGI: > 50 µM
T-47D breast
  TGI: > 50 µM
SNB-19 CNS
  TGI: > 50 µM
SF-539 CNS
  TGI: > 50 µM
CCRF-CEM leukemia
  TGI: > 50 µM
BT-549 breast
  TGI: > 50 µM
PC-3 prostate
  TGI: > 50 µM
RPMI-8226 leukemia
  TGI: > 50 µM
HL-60(TB) leukemia
  TGI: > 50 µM
HOP-62 NSCLC
  TGI: > 50 µM
M14 melanoma
  TGI: > 50 µM
NCI-H460 lung
  TGI: > 50 µM
MDA-MB-435
  TGI: > 50 µM
COLO 205 colon
  TGI: > 50 µM
SF-295 CNS
  TGI: > 50 µM
SW-620 colon
  TGI: > 50 µM
NCI/ADR-RES ovarian
  TGI: > 50 µM
MDA-MB-231 breast
  TGI: > 50 µM
UACC-62 melanoma
  TGI: > 50 µM
SK-MEL-28 melanoma
  TGI: > 50 µM
TK-10 renal
  TGI: > 50 µM
SK-OV-3 ovarian
  TGI: > 50 µM
IGROV1 ovarian
  TGI: > 50 µM
SNB-75 CNS
  TGI: > 50 µM
HOP-92 NSCLC
  TGI: > 50 µM
SK-MEL-5 melanoma
  TGI: > 50 µM
MOLT-4 leukemia
  TGI: > 50 µM
HCT-116 colon
  TGI: > 50 µM
NCI-H226 lung
  TGI: > 50 µM
786-0 renal
  TGI: > 50 µM
HS 578T breast
  TGI: > 50 µM
OVCAR-3 ovarian
  TGI: > 50 µM
NCI-H522 lung
  TGI: 49.1 µM
OVCAR-8 ovarian
  TGI: > 50 µM
SF-268 CNS
  TGI: > 50 µM
MALME-3M melanoma
  TGI: > 50 µM
SN12C renal
  TGI: > 50 µM
U251 CNS
  TGI: > 50 µM
SR leukemia
  TGI: > 50 µM
MCF7 breast
  TGI: > 50 µM
OVCAR-4 ovarian
  TGI: > 50 µM
ACHN renal
  TGI: > 50 µM
OVCAR-5 ovarian
  TGI: > 50 µM
UO-31 renal
  TGI: > 50 µM
HT29 colon
  TGI: > 50 µM
HCC-2998 colon
  TGI: > 50 µM
A549 NSCLC
  TGI: > 50 µM
CAKI-1 renal
  TGI: > 50 µM
DU-145 prostate
  TGI: > 50 µM
MDA-N
  TGI: > 50 µM
A498 renal
  TGI: > 50 µM
RXF 393 renal
  TGI: > 50 µM
SK-MEL-2 melanoma
  TGI: > 50 µM
KM12 colon
  TGI: > 50 µM

## Cc1cc(=O)n2nc(CCl)sc2n1
EKVX NSCLC
  TGI: 36 µM
K-562 leukemia
  TGI: 37.7 µM
UACC-257 melanoma
  TGI: 25.2 µM
HCT-15 colon
  TGI: 27.1 µM
NCI-H23 lung
  TGI: 47.1 µM
LOX IMVI melanoma
  TGI: 17.1 µM
T-47D breast
  TGI: 32.3 µM
SNB-19 CNS
  TGI: 39 µM
SF-539 CNS
  TGI: 34.1 µM
CCRF-CEM leukemia
  TGI: 40.8 µM
BT-549 breast
  TGI: 17.5 µM
PC-3 prostate
  TGI: 29.8 µM
RPMI-8226 leukemia
  TGI: 50.6 µM
HL-60(TB) leukemia
  TGI: 38.2 µM
HOP-62 NSCLC
  TGI: 40.2 µM
M14 melanoma
  TGI: 23.4 µM
NCI-H460 lung
  TGI: 29.5 µM
MDA-MB-435
  TGI: 26.3 µM
COLO 205 colon
  TGI: 33.5 µM
SF-295 CNS
  TGI: 42.9 µM
SW-620 colon
  TGI: 37.5 µM
NCI/ADR-RES ovarian
  TGI: 48 µM
MDA-MB-231 breast
  TGI: 37.5 µM
UACC-62 melanoma
  TGI: 46.9 µM
SK-MEL-28 melanoma
  TGI: 28.6 µM
TK-10 renal
  TGI: 23 µM
SK-OV-3 ovarian
  TGI: 53.2 µM
IGROV1 ovarian
  TGI: 37 µM
SNB-75 CNS
  TGI: 28.6 µM
HOP-92 NSCLC
  TGI: 28.2 µM
SK-MEL-5 melanoma
  TGI: 23 µM
MOLT-4 leukemia
  TGI: 36.3 µM
HCT-116 colon
  TGI: 24.9 µM
NCI-H226 lung
  TGI: 34.9 µM
786-0 renal
  TGI: 37 µM
HS 578T breast
  TGI: 55.9 µM
OVCAR-3 ovarian
  TGI: 28.4 µM
NCI-H522 lung
  TGI: 20 µM
OVCAR-8 ovarian
  TGI: 35.5 µM
SF-268 CNS
  TGI: 39.5 µM
MALME-3M melanoma
  TGI: 26.4 µM
SN12C renal
  TGI: 35 µM
U251 CNS
  TGI: 20.3 µM
SR leukemia
  TGI: 87 µM
MCF7 breast
  TGI: 28.7 µM
OVCAR-4 ovarian
  TGI: 32.4 µM
ACHN renal
  TGI: 27.5 µM
OVCAR-5 ovarian
  TGI: 28.9 µM
UO-31 renal
  TGI: 28.8 µM
HT29 colon
  TGI: 30.5 µM
HCC-2998 colon
  TGI: 31.1 µM
A549 NSCLC
  TGI: 35 µM
CAKI-1 renal
  TGI: 23.1 µM
DU-145 prostate
  TGI: 40.6 µM
MDA-N
  TGI: 27.7 µM
RXF 393 renal
  TGI: 20.8 µM
SK-MEL-2 melanoma
  TGI: 28.7 µM
KM12 colon
  TGI: 27.4 µM
